# Article PMC12362585, “Development and Preclinical Characterization of [^18F]H3-2406 and [^18F]H3-2407 for Positron Emission Tomography Imaging of the Histamine Subtype‑3 Receptor” (Journal of Medicinal Chemistry, 2025)
# How the values were obtained:
# H3R [1] = biological target: T1, H3R (Homo sapiens, UniProt Q9Y5N1); experiment: H3R competitive radioligand binding assay using [^3H]AZ13582963; conditions: competitive binding vs [^3H]AZ13582963; for Ki: read-out: H3R K i
# T1 construct: Gifford Bioscience (contract laboratory that ran the assay)
# T1 sequence (Q9Y5N1 whole entry, species assumed): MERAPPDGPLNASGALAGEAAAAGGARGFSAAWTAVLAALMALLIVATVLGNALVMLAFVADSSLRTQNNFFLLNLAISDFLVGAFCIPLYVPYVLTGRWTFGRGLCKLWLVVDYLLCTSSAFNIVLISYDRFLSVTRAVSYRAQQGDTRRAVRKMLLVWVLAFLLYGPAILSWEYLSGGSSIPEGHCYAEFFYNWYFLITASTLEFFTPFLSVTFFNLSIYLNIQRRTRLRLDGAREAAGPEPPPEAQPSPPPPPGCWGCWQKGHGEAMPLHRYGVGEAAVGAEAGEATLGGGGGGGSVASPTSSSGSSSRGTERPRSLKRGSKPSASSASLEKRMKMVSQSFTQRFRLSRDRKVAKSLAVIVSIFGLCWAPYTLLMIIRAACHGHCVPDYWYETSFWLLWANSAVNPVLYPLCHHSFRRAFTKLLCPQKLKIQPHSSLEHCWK
# 5-HT2C [2] = biological target: T2, 5-HT2C (Homo sapiens, UniProt P28335); experiment: 5HT2C binding assay; conditions: read-out: 5-HT2C K i
# T2 sequence (P28335 33-458): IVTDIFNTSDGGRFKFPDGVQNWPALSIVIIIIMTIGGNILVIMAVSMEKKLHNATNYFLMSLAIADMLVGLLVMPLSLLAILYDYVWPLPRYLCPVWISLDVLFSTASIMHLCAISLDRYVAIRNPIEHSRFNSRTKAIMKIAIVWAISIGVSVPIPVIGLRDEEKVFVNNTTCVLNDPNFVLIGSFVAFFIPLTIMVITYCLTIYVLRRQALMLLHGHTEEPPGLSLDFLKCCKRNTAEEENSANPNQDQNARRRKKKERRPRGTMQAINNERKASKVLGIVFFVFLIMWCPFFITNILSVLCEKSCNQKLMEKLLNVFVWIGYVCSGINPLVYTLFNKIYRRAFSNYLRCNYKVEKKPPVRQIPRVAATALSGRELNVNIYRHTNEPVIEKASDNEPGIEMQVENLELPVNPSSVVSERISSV
# sigma-1 receptor [3] = biological target: T3, sigma-1 receptor (Homo sapiens, UniProt Q99720); experiment: sigma 1 binding assay; conditions: for selectivity of H3R over sigma-1: ratio of sigma-1 K i to H3R K i; for Ki: read-out: sigma-1 K i
# T3 sequence (Q99720 whole entry, species assumed): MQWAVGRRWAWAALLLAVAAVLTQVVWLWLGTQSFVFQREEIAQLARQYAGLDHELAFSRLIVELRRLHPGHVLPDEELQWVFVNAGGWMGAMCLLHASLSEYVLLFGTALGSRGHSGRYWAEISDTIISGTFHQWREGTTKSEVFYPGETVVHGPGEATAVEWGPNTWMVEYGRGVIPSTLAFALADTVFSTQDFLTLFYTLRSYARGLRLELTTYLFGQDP
# [4] = biological target: 5-hydroxytryptamine receptor 2A (5-HT2A) (Homo sapiens, UniProt P28223); experiment: Off-target screening at 10 μM, 5-HT2A; type: binding; conditions: read-out: inhibition of 5-HT2A
# Sequence of 5-hydroxytryptamine receptor 2A (5-HT2A) (P28223 whole entry, species assumed): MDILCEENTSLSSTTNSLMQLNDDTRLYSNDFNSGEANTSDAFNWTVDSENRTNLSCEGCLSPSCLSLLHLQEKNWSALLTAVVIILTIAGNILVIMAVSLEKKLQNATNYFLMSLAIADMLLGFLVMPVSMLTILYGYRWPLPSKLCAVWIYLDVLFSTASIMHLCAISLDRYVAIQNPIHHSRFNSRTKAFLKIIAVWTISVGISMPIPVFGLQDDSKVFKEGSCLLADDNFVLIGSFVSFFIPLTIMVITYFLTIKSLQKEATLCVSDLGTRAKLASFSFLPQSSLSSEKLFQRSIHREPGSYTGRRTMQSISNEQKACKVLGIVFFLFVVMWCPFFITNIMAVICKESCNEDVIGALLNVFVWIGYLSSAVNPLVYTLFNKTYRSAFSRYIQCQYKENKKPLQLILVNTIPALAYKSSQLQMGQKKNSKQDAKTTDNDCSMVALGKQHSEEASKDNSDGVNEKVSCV
# [5] = tested on: CNS receptors, GPCRs, transporters, and ion channels; experiment: Off-target screening panel, CNS target selectivity; type: binding; conditions: H3R against most CNS targets
# [6] = Log D by shake-flask method; type: physicochemical; conditions: n-octanol/PBS
# Description: To evaluate the binding affinities of compounds 1–9, competitive radioligand binding assays were conducted using [^3H]-AZ13582963 [4-(1S,2S)-2-(4-cyclobutylpiperazine-1-carbonyl)-cyclopropyl)-N-methyl-[2-^3 H]-benzamide]. […]. […]. Further, ACD Percepta predictions indicated these compounds are likely to cross the blood-brain barrier (BBB), as indicated by a log BB > −1 and a multiparameter optimization (MPO) score >4.0. High selectivity toward H3R over other CNS targets is essential for effective H3R PET imaging. Therefore, off-target screenings of compounds 2, 3, and 4 were conducted against various CNS receptors, G protein-coupled receptors (GPCRs), transporters, and ion channels at 10 μM (Figure S1). […]. Sigma-1 receptors, crucial for ion channel function and associated with learning, memory, and pain, , have shown synergy with H3R antagonists, including PF-03654746 and ABT-239, potentially enhancing in vivo efficacy.
# The lipophilicity was measured according to previously reported methods. , In brief, PBS and n-octanol were premixed prior to the experiment. A solution containing 0.2 MBq of [^18F]3 or [^18F]4, PBS (3 mL) and n-octanol (3 mL) were prepared in a vial and vortexed for 5 min. The PBS and n-octanol layers were then separated and transferred into a centrifuge tube, followed centrifugation at 12,000 rpm for 5 min. Then PBS (0.5 mL) and n-octanol (0.05 mL) were weight and measured the radioactivity on a γ counter (PerkinElmer Wizard). The Log D values of [ ^18F]3 and [^18F]4 were calculated using the following formula: LogD=Log[(radioactivityn‐octanol/weightn‐octanol)/(radioactivityPBS/weightPBS)]
# sigma-1 receptor [7] = biological target: T3, sigma-1 receptor; experiment: Off-target screening at 10 μM, sigma-1; type: binding
# sigma-2 = sigma-2 (Homo sapiens, UniProt Q5BJF2); experiment: Off-target screening at 10 μM, sigma-2; type: binding
# Sequence of sigma-2 (Q5BJF2 whole entry): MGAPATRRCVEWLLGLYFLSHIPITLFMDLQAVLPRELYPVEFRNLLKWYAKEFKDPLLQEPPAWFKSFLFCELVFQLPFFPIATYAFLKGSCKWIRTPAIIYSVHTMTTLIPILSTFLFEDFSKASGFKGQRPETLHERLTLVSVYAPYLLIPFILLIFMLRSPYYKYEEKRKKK
# 5-HT2C [8] = biological target: T2, 5-HT2C; experiment: Off-target screening at 10 μM, 5-HT2C; type: binding; conditions: read-out: inhibition of 5-HT2C
# H3R [9] = biological target: T4, H3R (Rattus norvegicus, UniProt Q9QYN8); experiment: In vitro autoradiography on rat brain sections; type: binding, SD rat
# T4 construct: The brains of SD rat were sectioned into 15 μm slices; from tissue; host or cells: SD rat brain sections
# T4 sequence (Q9QYN8 whole entry): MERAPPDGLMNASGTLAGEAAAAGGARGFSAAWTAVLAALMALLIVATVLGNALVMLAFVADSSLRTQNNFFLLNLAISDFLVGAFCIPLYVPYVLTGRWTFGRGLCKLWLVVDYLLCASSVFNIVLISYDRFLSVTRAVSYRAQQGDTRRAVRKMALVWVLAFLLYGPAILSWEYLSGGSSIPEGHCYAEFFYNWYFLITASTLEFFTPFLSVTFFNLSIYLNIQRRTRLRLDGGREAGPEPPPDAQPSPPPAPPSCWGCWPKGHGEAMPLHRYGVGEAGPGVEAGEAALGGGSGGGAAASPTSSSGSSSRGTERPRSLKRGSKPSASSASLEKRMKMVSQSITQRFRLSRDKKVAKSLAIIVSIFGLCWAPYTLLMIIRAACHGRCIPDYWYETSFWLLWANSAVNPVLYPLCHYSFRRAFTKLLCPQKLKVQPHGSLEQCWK
# Description: To validate the target specificity and selectivity, in vitro autoradiography experiments were conducted using [^18F]3 and [^18F]4 on rat brain sections. […] Furthermore, pretreatment with unlabeled compound 3 (10 μM) led to a signal reduction of over 90% in the brain. […] This discrepancy is likely attributable to additional off-target binding of [^18F]3, which is further supported by high uptake in the cerebellum – a region with low H3R expression. […] The high uptake in the cerebellum may be attributed to nonspecific binding to unidentified CNS targets. […] Nonetheless, the results support further in vivo PET evaluation to better understand their binding profiles and evaluate their potential for H3R imaging – particularly in regions with low sigma-1 abundance.
# The ARG was measured according to previously reported methods. , The brains of SD rat were sectioned into 15 μm slices and stored in −80 °C. For each experiment, the brain slices allowed them to warm to room temperature and then incubated in Tris-HCl buffer (50 mM, containing 0.1% bovine serum albumin) for 10 min. The slices were incubated with [^18F]3 or [^18F]4 (0.037 MBq/mL) in the presence of either DMSO (baseline study), GSK189254 (10 μM, blocking study), and unlabeled 3 or 4 (10 μM, blocking study) at room temperature for 30 min. Following incubation, the brain slices were washed three times with cold Tris-HCl buffer (50 mM) for 5 min each, and then dipped in water 2 times for 5 s. The brain slices were dried under cold air and exposed to a Phosphor Screen (BAS IP MS2025, Cytiva) for 2 h. The radioactivity and imaging were captured using an Amersham Typhoon 5 (Cytiva) and the data were analyzed using ImageJ software.
# H3R [10] = biological target: T5, H3R (Mus musculus, UniProt P58406); experiment: Dynamic PET imaging in CD1 mice, baseline and H3R antagonist blocking; type: in vivo
# T5 construct: dynamic PET imaging studies were conducted in CD1 mice; from tissue; host or cells: brain of living CD1 mice
# T5 sequence (P58406 whole entry): as the sequence (Q9QYN8 whole entry) above, with T15A, A286T, A290G, R387H, I389V counted along it
# Description: To elucidate the in vivo brain uptake of [^18F]3 and [^18F]4, dynamic PET imaging studies were conducted in CD1 mice (an outbred strain of immunocompetent mice commonly used for pharmacokinetic and biodistribution studies) for 60 min. The results, which include summed PET images (0–60 min), whole-brain time-activity curves (TACs), and area under the curve (AUC) for both radioligands, are depicted in Figures and . At baseline, [^18F]3 rapidly crossed the BBB following intravenous injection, reaching peak whole-brain uptake with a standardized uptake value (SUV) value of 2.4 at 2.3 min. This was followed by a gradual washout and reached a SUV of 1.87 by 60 min. To evaluate the binding characteristics of [^18F]3, elective H3R antagonists with distinct structural scaffolds, GSK189254, enerisant, and cipralisant, were used as blocking agents. […] Quantification of specific tracer binding was performed using volume of distribution (V T) values, derived from compartmental modeling and an image-derived input function (IDIF). […] While these findings support the utility of [^18F]3 for in vivo studies, we acknowledge the inherent limitations of IDIF, including the lack of metabolite correction and potential inaccuracies in capturing early phase kinetics.
# PET imaging was conducted following previously reported methods. CD1 mice (5–6 weeks) were anesthetized with 1.5% (v/v) isoflurane during the scan. A dose of 3.0 MBq of [^18F]3 or [^18F]4 was intravenously injected into the tail vein, and a dynamic scan was acquiring using a PET scanner (MOLECUBES, beta-cube) for 60 min. In the blocking studies, GSK189254 (3 mg/kg) in 0.1 mL of saline containing 5% ethanol and 5% Tween-80 was preinjected for 10 min prior to the injection of PET radioligands. The results were reconstructed and analyzed by PMOD 4.3 software.
# Quantification of specific tracer binding was performed using volume of distribution (VT) values, derived from compartmental modeling and an image-derived input […]
# significant reduction in H3R-rich brain regions such as the cortex and striatum under blocking conditions with GSK189254, enerisant, and cipralisant, confirming the specificity of [18F]3 binding (Table S1).
# Table S1. Estimation of V T values by Logan analysis in mice with [ 18F]3 at baseline, GSK189254-blocking (3 mg/kg), enerisant-blocking (3 mg/kg), and cipralisant-blocking (3 mg/kg) conditions.
# Group Baseline GSK189254 Enerisant Cipralisant blocking blocking blocking
SMILES,IC50 (H3R [1]) [µM],Ki (H3R [1]) [µM],Ki (sigma-1 receptor [3]) [µM],logD [6],inhibition at 10 µM (sigma-1 receptor [7]) [%],further results
"O=C([C@H]1C[C@@H]1c1ccc(F)cc1)N1C[C@@H]2C[C@H]1CN2C1CCC1 [Compound 7, ((1S,4S)-5-Cyclobutyl-2,5-diazabicyclo[2.2.1]heptan-2-yl)((1S,2S)-2-(4-fluorophenyl)cyclopropyl)methanone]",> 1,> 1,–,–,–,–
"O=C([C@H]1C[C@@H]1c1ccc(F)cc1)N1C[C@@H]2CN(C3CCC3)C[C@@H]2C1 [Compound 8, ((3aR,6aS)-5-Cyclobutylhexahydropyrrolo[3,4-c]pyrrol-2(1H)-yl)((1S,2S)-2-(4-fluorophenyl)cyclopropyl)methanone]",> 1,> 1,–,–,–,–
"O=C([C@H]1C[C@@H]1c1ccc(F)cc1)N1CCN(C2CCCC2)CC1 [Compound 3, (4-Cyclopentylpiperazin-1-yl)((1S,2S)-2-(4-fluorophenyl)cyclopropyl)methanone]",–,–,0.199,2.82,93.2,Ki (5-HT2C [2]): > 1 µM; selectivity of H3R over sigma-1 (sigma-1 receptor [3]): 69 fold; inhibition at 10 µM [4]: 64.5%; CNS target selectivity [5]: over 300 fold
"O=C([C@H]1C[C@@H]1c1ccc(F)cc1)N1CCN(C2CCCCCC2)CC1 [Compound 5, (4-Cycloheptylpiperazin-1-yl)((1S,2S)-2-(4-fluorophenyl)cyclopropyl)methanone]",> 1,> 1,–,–,–,–
"O=C([C@H]1C[C@@H]1c1ccc(F)cc1)N1CCN(C2CCCCC2)CC1 [Compound 4, (4-Cyclohexylpiperazin-1-yl)((1S,2S)-2-(4-fluorophenyl)cyclopropyl)methanone]",–,–,1.28,3.35,94.4,inhibition at 10 µM (sigma-2): 93.6%; Ki (5-HT2C [2]): > 1 µM; inhibition at 10 µM (5-HT2C [8]): 80.3%; selectivity of H3R over sigma-1 (sigma-1 receptor [3]): 407 fold; inhibition at 10 µM [4]: 59%; CNS target selectivity [5]: over 300 fold
"O=C([C@H]1C[C@@H]1c1ccc(-c2ccc([18F])nc2)cc1)N1CCN(C2CCC2)CC1 [[^18F]H3-2404, reference compound]",–,0.0102,–,–,–,–
O=C([C@H]1C[C@@H]1c1ccc([18F])cc1)N1CCN(C2CCCCC2)CC1 [[^18F]4],–,–,–,3.35,–,"reduction in radioactivity across brain regions, GSK189254 blocking (H3R [9]; GSK189254 10 μM): 38.7–68.2%; signal reduction, self-blocking with unlabeled compound (H3R [9]; unlabeled 3 or 4 at 10 μM): 66.6–78.8%; whole-brain signal reduction based on AUC, GSK189254 blocking (H3R [10]; GSK189254 3 mg/kg, 0–60 min): did not yield a significant reduction; time of peak whole-brain uptake (H3R [10]; baseline, CD1 mice): 4.3 min; whole-brain uptake at 60 min (H3R [10]; baseline, CD1 mice): 1.77 SUV; peak whole-brain uptake (H3R [10]; baseline, intravenous injection, CD1 mice): 1.83 SUV; reduction in whole-brain uptake from peak after 60 min dynamic scan (H3R [10]; baseline, washout): 3.3%"
"O=C([C@H]1C[C@@H]1c1ccc(F)cc1)N1CCN(C2CCC2)CC1 [Compound 2, (4-Cyclobutylpiperazin-1-yl)((1S,2S)-2-(4-fluorophenyl)cyclopropyl)methanone]",–,–,0.00161,2.76,98.1,–
"O=C([C@H]1C[C@@H]1c1ccc(F)cc1)N1CC2(C1)CN(C1CCC1)C2 [Compound 6, (6-Cyclobutyl-2,6-diazaspiro[3.3]heptan-2-yl)((1S,2S)-2-(4-fluorophenyl)cyclopropyl)methanone]",> 1,> 1,–,–,–,–
"[11CH3]NC(=O)c1ccc([C@H]2C[C@@H]2C(=O)N2CCN(C3CCC3)CC2)cc1 [AZD13153556, reference compound]",0.0235,–,–,–,–,–
